From PubChem BioAssay AID179 (DTP/NCI, 2004)
Calls of active or inactive are those of the source.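 How the source made its calls: active means compounds giving half or more protection of infected cells from virus-caused growth loss, again on retest; inactive means the rest.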 Where a SMILES comes first, the peptide text is derived from it.

Tested on: CEM cells HIV-1 protection, formazan growth assay
Test: NCI AIDS Antiviral Assay
Conditions: for IC50: measured here: growth of uninfected CEM cells
Procedure, shortened: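 Five concentrations of each compound were applied to infected and uninfected human CEM cells. Protection from HIV-1 was judged from growth measured with a soluble formazan assay.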

Compound	EC50 [µM]	IC50 [µM]	outcome
Nc1ccn(C2CCC3(CO)CC23)c(=O)n1 (stereo unspecified)	> 50.1	> 50.1	–
COC(=O)C1(Cc2ccc3c(c2)CCC3)Cc2ccc3c(c2C1=O)CCC3 (stereo unspecified)	> 20	9.55	–
C=C1CC2(OC1=O)c1ccccc1CCc1ccccc12	> 36.3	6.17	–
O=C(Nc1ccccc1)c1cc2c(cc1Cl)Sc1nccn1S2(=O)=O	> 200	> 100	–
COc1cc2c(cc1OC)C(Cl)C(c1cc(OC)c(OC)c(OC)c1)=C2Cl (stereo unspecified)	–	–	inactive
COc1cc2ccc3c4cc(OC)c(OC)cc4c[n+](C)c3c2cc1O	–	–	inactive
CCOC(=O)C1SC(=Nc2ccc(Cl)c(Cl)c2)N=C1C (stereo unspecified)	> 11.5	> 11.5	–
COc1cc(C)c(O)c(C(=O)O)c1	–	–	inactive
C=C(C)Cn1c(N)c(N=O)c(=O)n(CC)c1=O	> 200	158	–
NC(CS)C(=O)O (stereo unspecified)	> 182	> 182	–
O=C(CC(=O)Nc1ccccc1F)N/N=C/c1ccccc1	–	–	inactive
COc1ccc(CCNC(=O)CCc2ccccc2CO)cc1OC	> 200	> 200	–
CCC(C)C(NC(=O)C(CCCN=C(N)N)NC(=O)C(CC(=O)O)NC(=O)C(Cc1cnc[nH]1)NC(=O)C(N)CC(C)C)C(=O)NC(C(=O)NC(CC(C)C)C(=O)NCC(=O)NC(CC(=O)O)C(=O)O)C(C)CC (stereo unspecified) (H-LHDRIILGD-OH; configuration not given here)	> 58.9	> 58.9	–
CNC(=O)Oc1cccc(CN(C)C)c1	> 200	> 200	–
Cc1sc2nc3n(c(=O)c2c1C)N=CN(c1ccc(F)cc1)C3	30.9	> 100	–
CCCNCc1c2c(O)c3c(O)c(C)c4c(c3c1O)C(=O)C(C)(O/C=C/C(OC)C(C)C(OC(C)=O)C(C)C(O)C(C)C(O)C(C)/C=C/C=C(/C)C(=O)N2)O4 (stereo unspecified)	> 200	3.8	–
NCCn1c(-c2ccccc2)nc2ccccc2c1=O	> 200	123	–
C=C1CN(S(=O)(=O)c2ccc(C)cc2)CCCN(C(C)CC)CCCN(S(=O)(=O)c2ccc(C)cc2)C1 (stereo unspecified)	> 200	> 200	–
O=C(O)c1cc(N=Nc2ccc(/C=C/c3ccc(N=Nc4ccc(O)c(C(=O)O)c4)cc3S(=O)(=O)O)c(S(=O)(=O)O)c2)ccc1O	22.4	36.3	–
O=C(NNc1ccnc2cc(Cl)ccc12)/C(=C\c1ccccc1Cl)NC(=O)c1ccccc1	> 100	56.2	–
CC(CC(C)[C@H]1CCC2[C@H]3C(CC[C@@]21C)[C@@]1(C)CCC(O)C[C@H]1C[C@@H]3O)C(=O)O (stereo partly specified)	–	–	inactive
CNCc1c(S)ccc2ccccc12	–	–	inactive

Compound	EC50 [µM]	IC50 [µM]	outcome
C#CC(O)/C=C/C(O)CCCC(O)CC#CC(O)C#CCCCCC(O)/C=C/CCCC(=O)CCCCCCCCCCCCCCCC(O)C(O)C#CC(=O)O (stereo unspecified)	> 50.1	28.2	–
CCOC(=O)CN=c1nc(SC)sc2c(C(=O)OCC)nc(Sc3ccccc3)n12	> 60.3	10.7	–
O=C(Nc1ccc(/C=C/c2ccc(NC(=O)c3ccc4cccnc4c3O)cc2S(=O)(=O)O)c(S(=O)(=O)O)c1)c1ccc2cccnc2c1O	> 100	60.3	–
CC(NC(=O)C(N)Cc1ccc(O)cn1)C(=O)O (stereo unspecified)	> 200	> 200	–
Clc1ccc(C=NC23CC4CC(CC(C4)C2)C3)c(Cl)c1	–	–	inactive
Fc1c(F)c(F)c(S)c(F)c1F	–	–	active
O=c1c2c([nH]c3ccccc13)CSC2	> 67.6	> 67.6	–
NC(N)=N/N=C(\c1ccccc1)C(O)c1ccccc1 (stereo unspecified)	> 200	107	–
CN(C)C1=CC(=O)c2ccccc2C12CO2 (stereo unspecified)	> 234	41.7	–
Cc1ccc(Cc2cc(N3CCN(c4cccc(Cl)c4)CC3)nnc2C)cc1	> 100	16.6	–
Cc1ccc(S(=O)(=O)SC/C=C\CSS(=O)(=O)c2ccc(C)cc2)cc1	–	–	inactive
C[C@]12C=CC(=O)C=C1CC[C@H]1[C@@H]3C[C@@H](O)[C@](O)(C(=O)CO)[C@@]3(C)C[C@H](O)[C@@]12F	–	–	inactive
CCCCCCCCCCCCCCCCCC(=O)OC[C@H](COP(=O)(O)OCCNC(=O)CCC(=O)NCCC=C(c1cc(Cl)c(OC)c(C(=O)OC)c1)c1cc(Cl)c(OC)c(C(=O)OC)c1)OC(=O)CCCCCCCCCCCCCCCCC	> 50.1	> 50.1	–
CCOC1(OCC)CS(=O)(=O)C1c1ccccc1 (stereo unspecified)	> 661	> 661	–
COC(=O)c1cc(C(=CC(=O)OC(C)(C)C)c2cc(Cl)c(OC)c(C(=O)OC)c2)cc(Cl)c1OC	> 100	14.1	–
O=C(N=C1SCCN1C(=O)C(C(F)(F)F)C(F)(F)F)C(C(F)(F)F)C(F)(F)F	> 200	> 200	–
CCOC(=O)c1cc(N/N=C2/CCCNC2=O)c[nH]1	> 200	41.7	–
S=C(N/N=C(/c1ccccc1)c1ccccn1)N1CCCCCC1	> 0.2	0.115	–
COP(=O)(OC)c1ccc(NCc2cc(O)ccc2O)cc1	> 55	7.94	–
CCOC(=O)C(=O)Nc1ccccc1C(C)C	> 151	> 151	–
C[N+](C)(C)CC1C2C=CC(C2)C1CO (stereo unspecified)	> 275	> 275	–
